Experimental findings from ChEMBL document CHEMBL1158883, “Flavanone glycosides from Miconia trailii” (J Nat Prod, 2003) are described below.

This experiment concerns the target Fatty acid synthase (Homo sapiens, UniProt P49327). Nature of the experiment: Inhibition of fatty acid synthase.

Fatty acid synthase, sequence (P49327 whole entry): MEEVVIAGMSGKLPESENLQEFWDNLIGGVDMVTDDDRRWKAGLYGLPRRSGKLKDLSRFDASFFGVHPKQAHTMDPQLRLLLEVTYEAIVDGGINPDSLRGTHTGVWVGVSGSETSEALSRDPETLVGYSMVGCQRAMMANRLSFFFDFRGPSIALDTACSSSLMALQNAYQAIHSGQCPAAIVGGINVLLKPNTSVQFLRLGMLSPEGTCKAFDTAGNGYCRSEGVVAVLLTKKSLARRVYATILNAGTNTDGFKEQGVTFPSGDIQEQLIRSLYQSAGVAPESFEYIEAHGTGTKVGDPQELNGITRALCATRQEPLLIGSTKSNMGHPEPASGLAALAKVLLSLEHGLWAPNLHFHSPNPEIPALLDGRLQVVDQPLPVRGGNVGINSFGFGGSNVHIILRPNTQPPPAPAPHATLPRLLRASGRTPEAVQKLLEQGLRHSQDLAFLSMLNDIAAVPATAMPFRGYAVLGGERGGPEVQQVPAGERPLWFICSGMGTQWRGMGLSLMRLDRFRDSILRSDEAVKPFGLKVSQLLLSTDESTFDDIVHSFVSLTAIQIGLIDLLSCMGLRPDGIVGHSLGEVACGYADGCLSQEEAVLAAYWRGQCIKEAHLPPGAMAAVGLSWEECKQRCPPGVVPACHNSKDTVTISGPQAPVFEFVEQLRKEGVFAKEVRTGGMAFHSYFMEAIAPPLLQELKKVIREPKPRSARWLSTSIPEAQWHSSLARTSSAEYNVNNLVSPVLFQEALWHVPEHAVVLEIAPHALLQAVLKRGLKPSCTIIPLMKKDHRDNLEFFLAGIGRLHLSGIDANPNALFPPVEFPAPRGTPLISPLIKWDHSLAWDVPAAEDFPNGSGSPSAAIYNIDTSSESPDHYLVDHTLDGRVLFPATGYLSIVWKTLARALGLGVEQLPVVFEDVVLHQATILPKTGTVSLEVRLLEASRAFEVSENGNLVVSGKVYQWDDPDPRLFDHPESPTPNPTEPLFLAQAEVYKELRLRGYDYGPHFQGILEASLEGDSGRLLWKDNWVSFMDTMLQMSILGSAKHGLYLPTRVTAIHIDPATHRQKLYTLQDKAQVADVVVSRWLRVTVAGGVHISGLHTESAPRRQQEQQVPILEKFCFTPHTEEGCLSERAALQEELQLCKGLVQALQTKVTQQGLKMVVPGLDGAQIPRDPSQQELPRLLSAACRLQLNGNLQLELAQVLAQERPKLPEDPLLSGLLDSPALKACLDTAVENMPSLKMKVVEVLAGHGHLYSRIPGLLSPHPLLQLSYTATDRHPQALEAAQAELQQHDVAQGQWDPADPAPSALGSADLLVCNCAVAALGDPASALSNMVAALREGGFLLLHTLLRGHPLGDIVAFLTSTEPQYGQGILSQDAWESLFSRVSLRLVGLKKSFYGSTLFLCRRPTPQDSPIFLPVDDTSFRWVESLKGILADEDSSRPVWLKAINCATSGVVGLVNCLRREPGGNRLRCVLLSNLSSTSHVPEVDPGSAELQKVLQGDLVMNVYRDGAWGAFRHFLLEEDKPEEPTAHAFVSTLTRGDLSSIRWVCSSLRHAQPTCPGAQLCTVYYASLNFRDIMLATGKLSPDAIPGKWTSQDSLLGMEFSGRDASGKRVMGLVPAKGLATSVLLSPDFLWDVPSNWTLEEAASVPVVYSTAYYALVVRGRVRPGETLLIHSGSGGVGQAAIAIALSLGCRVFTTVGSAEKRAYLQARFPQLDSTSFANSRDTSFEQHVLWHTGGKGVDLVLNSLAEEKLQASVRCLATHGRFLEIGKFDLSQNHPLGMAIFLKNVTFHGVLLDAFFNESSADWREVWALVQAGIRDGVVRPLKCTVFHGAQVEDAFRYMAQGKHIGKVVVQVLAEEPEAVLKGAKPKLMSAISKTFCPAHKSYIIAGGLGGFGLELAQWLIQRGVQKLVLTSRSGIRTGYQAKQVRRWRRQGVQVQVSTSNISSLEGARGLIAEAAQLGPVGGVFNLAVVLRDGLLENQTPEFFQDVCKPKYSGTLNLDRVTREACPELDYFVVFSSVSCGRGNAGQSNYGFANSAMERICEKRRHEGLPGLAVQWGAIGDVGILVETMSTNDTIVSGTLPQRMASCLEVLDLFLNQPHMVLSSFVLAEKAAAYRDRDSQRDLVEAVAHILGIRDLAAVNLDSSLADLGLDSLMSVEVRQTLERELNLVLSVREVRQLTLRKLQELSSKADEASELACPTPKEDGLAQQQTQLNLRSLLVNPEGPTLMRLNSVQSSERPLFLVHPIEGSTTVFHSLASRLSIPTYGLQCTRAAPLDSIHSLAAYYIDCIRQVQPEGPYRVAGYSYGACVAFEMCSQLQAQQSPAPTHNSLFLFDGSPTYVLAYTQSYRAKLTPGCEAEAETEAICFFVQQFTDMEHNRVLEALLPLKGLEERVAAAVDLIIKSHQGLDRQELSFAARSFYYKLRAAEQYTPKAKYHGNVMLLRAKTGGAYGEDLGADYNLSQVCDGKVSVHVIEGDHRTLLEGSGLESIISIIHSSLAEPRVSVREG

`C/C=C/C/C=C/CCC(=O)[C@H]1O[C@H]1C(N)=O` [CERULENIN] had an IC50 of 851 nM.
Next, `COc1ccc([C@@H]2CC(=O)c3c(O)c(C)c(O[C@@H]4O[C@H](CO[C@@H]5OC[C@H](O)[C@H](O)[C@H]5O)[C@@H](O)[C@H](O)[C@H]4O)c(C)c3O2)cc1` [MICONIOSIDE A]: more than 82200 nM.

The term IC50 denotes the concentration that gives 50% inhibition.
